{"source": "patent US20150158914A1", "about": "“PEPTIDES, CONSTRUCTS AND USES THEREFOR” (priority 2010, published 2015)", "key": {"[1]": {"test_system": "adherent monocytes and platelets", "test": "Peptide uptake by adherent buffy coat cells", "assay_type": "cell-based, human", "settings": "3 h, cells adhered to 8-chamber slides", "experimental": "(§1) To determine whether this was a general feature of nonadherent cells, the ability of the peptide to enter non-adherent human peripheral blood mononuclear cells was examined. A buffy coat containing monocytes, lymphocytes, and platelets was isolated from 10 ml of human blood and incubated in 8-chamber slides for 3 h with the cell-permeable peptide aa 16-22 in RPMI medium without FCS."}, "[2]": {"test_system": "nonadherent cell line TK1", "test": "Peptide uptake by suspension cell line", "assay_type": "cell-based", "settings": "TK1 in suspension, 3 h; listed as X-protein cell-permeable peptide aa 16-22", "experimental": "(§2) The cells were then incubated overnight at 37° and 5% CO2, and then washed thrice with media without FCS. The X-protein peptide in 250 μl of appropriate media without FCS was added to the cells at a final concentration of 10 μM, and the slides incubated for 3 h at 37° C. and 5% CO2. The cells were washed with PBS, fixed with 4% formaldahyde in PBS for 30 min, and washed thrice with PBS. […] The slides were dried overnight in the dark, and examined by microscopy by using a Nikon E600 fluorescent microscope. Photos were taken using Nikon ACT-1 software. For further examination, slides were then examined by confocal microscopy using a Leica TCS-SP2 confocal microscope.\n(§3) The X-protein cell-permeable peptide aa 16-22 was tested for its ability to be taken up by other mammalian cell lines including the human C32 melanoma, DU145 prostate carcinoma, TK1 T cell lymphoma, H441 lung carcinoma, Rin-m5f rat pancreatic islet tumor and Cos-1/7 green monkey kidney cell lines. TK1 cells are suspension cells whereas all other cell lines are adherent cells. Cells were incubated with the fluoresceinated X-protein cell-permeable peptide 16-22 for 3 h in medium appropriate for that cell line in the absence of FCS. The HepG2 cell line was used as a positive control. The X-protein peptide was able enter all adherent cell lines regardless of type or source of the cell (FIGS. 22 and 23)."}, "adherent TK1 T cells": {"test_system": "adherent TK1 T cells", "test": "Peptide uptake by attached TK1 cells", "assay_type": "cell-based", "excerpt": "As above, the lymphocytic cell line TK1 in suspension was not able to take up the X-protein cell-permeable peptide aa 16-22. Once activated, circulating lymphocytes have the ability to adhere to the vascular endothelium, to attach to antigen presenting cells, and to attach to and move through the extracellular matrix. The fact that adherent monocytes took up the peptide raised the possibility that TK1 T cells attached to a surface might also be able to take up the X-protein cell permeable peptide aa 16-22. TK1 cells were adhered to MAdCAM-1-coated glass slides or left to bind directly to the surface of the glass slides. Cells attached to the slides were incubated with the X-protein cell-permeable peptide aa 16-22 for 3 h in RPMI without FCS. Virtually all TK1 cells attached via α4β7 to MAdCAM-1 took up the peptide, whereas only 50 to 60% of cells directly attached to the glass slide took up the peptide (FIG. 27)."}, "[3]": {"test_system": "nonadherent erythrocytes and platelets", "test": "Peptide uptake in whole blood", "assay_type": "cell-based", "settings": "whole blood in 10 mM citrate buffer, 3 h", "experimental": "Whole blood was incubated with the fluoresceinated X-protein cell-permeable peptide aa 16-22 for 3 h to determine whether erythrocytes and platelets are able to take up the peptide. Blood was collected from a finger prick and suspended in 10 mM citrate buffer to prevent the blood clotting. After incubation with peptide the cells were washed in PBS and a blood smear prepared on a glass slide. The cells were stained with Diff-Quik."}, "[4]": {"test_system": "nonadherent peripheral blood mononuclear cells", "test": "Peptide uptake by nonadherent buffy coat cells", "assay_type": "cell-based, human", "settings": "3 h, RPMI without FCS", "experimental": "as §1"}, "[5]": {"test_system": "H441 lung carcinoma cell line", "test": "Peptide uptake by other cell lines", "assay_type": "cell-based, human", "settings": "H441, 3 h", "experimental": "as §2, §3"}, "[6]": {"test_system": "DU145 prostate carcinoma cell line", "test": "Peptide uptake by other cell lines", "assay_type": "cell-based, human", "settings": "DU145, 3 h", "experimental": "as §2, §3"}, "C32 melanoma cell line": {"test_system": "C32 melanoma cell line", "test": "Peptide uptake by other cell lines", "assay_type": "cell-based, human", "settings": "C32, 3 h", "experimental": "as §2, §3"}, "[7]": {"settings": "listed as X-protein cell-permeable peptide 16-22"}, "[8]": {"settings": "listed as cell-permeable peptide aa 16-22"}}, "note": "Ends that are not written are not given here. * marks the point of attachment. FITC = O=C1OC2(c3ccc(O)cc3Oc3cc(O)ccc32)c2ccc(NC(=S)*)cc21", "data": [{"substance": "FITC-LCLRPVG ({FITC}-LCLRPVG) [Peptide 16-22]", "values": [{"measurement": "uptake by adherent monocytes and platelets", "setting": "[1]; [7]", "value": "able to enter adherent monocytes, and potentially adherent platelets"}, {"measurement": "uptake by adherent monocytes and platelets", "setting": "[1]; [8]", "value": "had taken up the peptide"}, {"measurement": "entry into cells", "setting": "[2]", "value": "completely unable to enter"}, {"measurement": "uptake by adherent TK1 T cells", "setting": "adherent TK1 T cells; adhered to MAdCAM-1-coated glass slides or to the slides directly", "value": "took up"}, {"measurement": "TK1 cells that took up the peptide", "setting": "adherent TK1 T cells; attached via α4β7 to MAdCAM-1, 3 h", "value": "Virtually all"}, {"measurement": "TK1 cells that took up the peptide", "setting": "adherent TK1 T cells; directly attached to the glass slide, 3 h", "value": "50 to 60 % of cells"}, {"measurement": "uptake by erythrocytes and platelets", "setting": "[3]; [7]", "value": "does not enter"}, {"measurement": "uptake by erythrocytes and platelets", "setting": "[3]; listed as X-protein cell-permeable peptide aa 16-22", "value": "None of the cell types present"}, {"measurement": "uptake by nonadherent buffy coat cells", "setting": "[4]; [7]", "value": "unable to enter"}, {"measurement": "uptake by nonadherent buffy coat cells", "setting": "[4]; [8]", "value": "did not take up the peptide"}, {"measurement": "entry into cells", "setting": "[5]", "value": "taken up less efficiently"}, {"measurement": "uptake of the peptide, cells positive", "setting": "[5]; no FCS", "value": "60 to 70", "unit": "% cells positive"}, {"measurement": "entry into cells", "setting": "[6]", "value": "able to enter"}, {"measurement": "uptake of the peptide, cells positive", "setting": "[6]; no FCS", "value": "> 90", "unit": "% cells positive"}, {"measurement": "entry into cells", "setting": "C32 melanoma cell line", "value": "able to enter"}, {"measurement": "uptake of the peptide, cells positive", "setting": "C32 melanoma cell line; no FCS", "value": "> 90", "unit": "% cells positive"}]}]}
